This note sets out measurements from patent US9828369B2, “Isoquinoline derivatives useful as inhibitors of diacylglyceride O-acyltransferase 2” (Merck Sharp & Dohme Corp., priority 2014, dated 2017).

SMILES strings stand for the structures.

For the test, the target named is hDGAT2 (Homo sapiens (Human), UniProt Q96PD7). Nature of the test: DGAT2 enzymatic activity assay (triolein formation, LC/MS/MS). The note with it: read-out: IC50 values for inhibition of DGAT2; membrane prep of Sf-9 cells expressing hDGAT2; 25 μM diolein, 10 μM oleoyl-CoA; room temperature; triolein by LC/MS/MS.
Sequence of hDGAT2 (Q96PD7 whole entry): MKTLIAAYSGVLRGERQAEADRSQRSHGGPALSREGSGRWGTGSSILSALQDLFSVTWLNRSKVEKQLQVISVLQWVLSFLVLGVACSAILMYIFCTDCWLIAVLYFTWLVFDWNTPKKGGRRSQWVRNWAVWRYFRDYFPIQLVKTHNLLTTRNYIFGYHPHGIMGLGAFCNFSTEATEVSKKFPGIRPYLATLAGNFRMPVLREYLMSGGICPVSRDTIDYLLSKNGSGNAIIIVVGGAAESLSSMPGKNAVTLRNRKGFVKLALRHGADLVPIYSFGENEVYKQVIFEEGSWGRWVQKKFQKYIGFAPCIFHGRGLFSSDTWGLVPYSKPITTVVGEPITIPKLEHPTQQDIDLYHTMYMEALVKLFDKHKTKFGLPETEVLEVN
`O=C(O)CCc1ccc(-c2ccc(CNC(=O)Nc3cccc(Cl)c3Cl)c3cnccc23)cc1` [Example 163, 3-(4-(8-((3-(2,3-dichlorophenyl)ureido)methyl)isoquinolin-5-yl)phenyl)propanoic acid]: the IC50 stood at 2.36 µM.
Turning to `CC(c1ccccc1)c1ccc(CNC(=O)Nc2cccc(Cl)c2Cl)c2cnccc12` (centres unmarked) [Example 164, 1-(2,3-dichlorophenyl)-3-((5-(1-phenylethyl)isoquinolin-8-yl)methyl)urea], the IC50 is 4.21 µM.
Turning to `CC(C)(C)OC(=O)N1CCC=C(c2ccc(CNC(=O)Nc3cccc(Cl)c3Cl)c3cnccc23)C1` [Example 165, tert-butyl 3-(8-((3-(2,3-dichlorophenyl)ureido)methyl)isoquinolin-5-yl)-5,6-dihydropyridine-1(2H)-carboxylate], the IC50 stood at 4.31 µM.
As for `O=C(NCc1ccc(-c2cccc(C(=O)N3CCOCC3)c2)c2ccncc12)Nc1cccc(Cl)c1Cl` [Example 166, 1-(2,3-dichlorophenyl)-3-((5-(3-(morpholine-4-carbonyl)phenyl)isoquinolin-8-yl)methyl)urea], the IC50 is 4.41 µM.
For the molecule `O=C(NCc1ccc(C2=CCNC2)c2ccncc12)Nc1cccc(Cl)c1Cl` [Example 167, 1-(2,3-dichlorophenyl)-3-((5-(2,5-dihydro-1H-pyrrol-3-yl)isoquinolin-8-yl)methyl)urea], the IC50 came to 4.42 µM.
Take `COc1cccc(-c2ccc(CNC(=O)Nc3ccccc3-c3ccccc3)c3cnccc23)c1` [Example 169, 1-([1,1′-biphenyl]-2-yl)-3-((5-(3-methoxyphenyl)isoquinolin-8-yl)methyl)urea]: the IC50 worked out at 7.07 µM.
For the molecule `COc1cccc(-c2ccc(CNC(=O)Nc3ccc(F)cc3F)c3ncccc23)c1` [Example 170, 1-(2,4-difluorophenyl)-3-((5-(3-methoxyphenyl)quinolin-8-yl)methyl)urea], the IC50 stood at 8.19 µM.
As for `COc1cccc(-c2ccc(CNC(=O)C3CC3c3ccccc3)c3ccccc23)c1` (centres unmarked) [Example 172, N-((4-(3-methoxyphenyl)naphthalen-1-yl)methyl)-2-phenylcyclopropanecarboxamide], the IC50 was found to be 0.206 µM.

By IC50 is commonly meant the concentration at which inhibition is half-maximal.
